Each block holds one compound with its values, some of them ahead of it.
How the values were obtained:
Cathepsin B = Cathepsin B (Homo sapiens, UniProt P07858); assay: Inhibition of cathepsin B in oxygen free condition
Rattus norvegicus [1] = assay: Inhibition of water-immersion stress-induced ulcer formation in rat at 3 mg/kg; type: functional
Rattus norvegicus [2] = assay: Inhibition of water-immersion stress-induced ulcer formation in rat at 1 mg/kg; type: functional
Rattus norvegicus [3] = assay: Inhibition of water-immersion stress-induced ulcer formation in rat at 10 mg/kg; type: functional
Rattus norvegicus [4] = assay: Inhibition of water-immersion stress-induced ulcer formation in rat at 30 mg/kg; conditions: read-out: INH
[5] = Dissociation constant, pKa of the compound; type: physicochemical

IC50 (Cathepsin B): 232 µM
IC50 (Inhibition of urease): 1.1 µM
Compound: CCOC(=O)C(C)=C=C(c1ccccc1)c1ccccc1
inhibition in vivo at 3 mg/kg (Rattus norvegicus [1]): 52%
inhibition in vivo at 1 mg/kg (Rattus norvegicus [2]): 40%
inhibition in vivo at 10 mg/kg (Rattus norvegicus [3]): 87%

Compound: CN/C(=N\CCSCc1nc[nH]c1C)NC#N [CIMETIDINE]
inhibition in vivo at 30 mg/kg (Rattus norvegicus [4]): 74%

Compound: NC(N)=Nc1nc(CSCC/C(N)=N/S(N)(=O)=O)cs1 [FAMOTIDINE]
inhibition in vivo at 3 mg/kg (Rattus norvegicus [1]): 59%

pKa [5]: 8.7
Compound: N[C@@H](CCC(=O)N[C@@H](CS)C(=O)NCC(=O)O)C(=O)O [GLUTATHIONE]
